Values quoted from earlier work in publication PMC5129521 (Diabetes, Obesity & Metabolism, 2016).

Conditions: mice

- Terminal plasma half‐life: ~7 h
Structure (SMILES): CCCCCCCCCCCCCCCC(=O)N[C@@H](CCC(=O)NCCCC[C@H](NC(=O)[C@H](C)NC(=O)[C@H](C)NC(=O)[C@H](CCC(N)=O)NC(=O)CNC(=O)[C@H](CCC(=O)O)NC(=O)[C@H](CC(C)C)NC(=O)[C@H](Cc1ccc(O)cc1)NC(=O)[C@H](CO)NC(=O)[C@H](CO)NC(=O)[C@@H](NC(=O)[C@H](CC(=O)O)NC(=O)[C@H](CO)NC(=O)[C@@H](NC(=O)[C@H](Cc1ccccc1)NC(=O)[C@@H](NC(=O)CNC(=O)[C@H](CCC(=O)O)NC(=O)[C@H](C)NC(=O)[C@@H](N)Cc1cnc[nH]1)[C@@H](C)O)[C@@H](C)O)C(C)C)C(=O)N[C@@H](CCC(=O)O)C(=O)N[C@@H](Cc1ccccc1)C(=O)N[C@H](C(=O)N[C@@H](C)C(=O)N[C@@H](Cc1c[nH]c2ccccc12)C(=O)N[C@@H](CC(C)C)C(=O)N[C@H](C(=O)N[C@@H](CCCNC(=N)N)C(=O)NCC(=O)N[C@@H](CCCNC(=N)N)C(=O)NCC(=O)O)C(C)C)[C@@H](C)CC)C(=O)O [Liraglutide]
